The term IC50 denotes the point on the concentration scale where inhibition reaches its midpoint.

The text below walks through data of patent US8329743B2, “Compositions and its use in treating obesity or inducing weight loss” (Sami Labs Limited, priority 2011, dated 2012).

The structures appear in SMILES notation. Values after ≈ are worked out from the molar mass of the structure shown.

For this experiment, the system named is 3T3-L1 mouse adipocyte cells. Briefly: Adipogenesis inhibition, Oil Red-O staining of adipocytes. Format: cell-based. As to conditions: Table 1, 3T3-L1 mouse adipocytes, OD 492 nm, read-out: Adipogenesis inhibitory activity (IC50). The source says:
Adipogenesis, or the development of fat cells from preadipocytes, has been one of the most intensely studied models for obesity. A fat cell develops as internally produced lipid droplets coalesce into a single large mass. The in vitro adipogenesis inhibitory model can recapitulate most of the critical aspects of fat cell formation in vivo.
A common assay to measure adipocyte differentiation in cell culture is with the dye Oil Red-O, which is a lipid-soluble red dye. Since terminal differentiation of adipocytes is accompanied by the accumulation of great amounts of lipids in large cytoplasmic vesicles, a strong, bright, staining of the cytoplasm with this dye is a reliable indicator of adipocyte differentiation.
3T3-L1 mouse adipocyte cells are seeded at a density of 5000 cell/200 μl of adipocyte induction medium in a 96 well plate. After 48 hrs, sample is added. After 72 hrs, the medium is changed to adipocyte progression medium along with the sample. The medium is similarly changed after another 48 hours. The plates are washed gently after 48 hrs with 100 μl of PBS. […] The OD reading is taken at 492 nm in microplate reader.
The results are expressed as IC50 values using Graphpad prism software. The percentage of inhibition of adipogenesis is calculated as follows,
[formula] Where C—absorbance due to adipogenesis in untreated cells • T—absorbance due to adipogenesis in sample treated cells

Consider `C=C(C)[C@@H](CC=C(C)C)C[C@@]12C[C@@H](CC=C(C)C)C(C)(C)[C@@](CC=C(C)C)(C(=O)C(C(=O)c3ccc(O)c(O)c3)=C1O)C2=O` [Garcinol], for which the IC50 was 0.2 µg/mL (≈ 0.332 µM).

On to `COc1cc(C=Cc2ccc(O)cc2)cc(OC)c1` [Pterostilbene, 3,5-dimethoxy-4′-hydroxystilbene], for which the IC50 is 13.3 µg/mL (≈ 52 µM).
